Source: publication PMC7435819, “Towards the Inhibition of Protein–Protein Interactions (PPIs) in STAT3: Insights into a New Class of Benzothiadiazole Derivatives” (Molecules, 2020)
Read-outs that look alike come from different tables or passages of the source. Where no end group is shown, it is not given here. [ ]: non-standard residue; d: D form. pY = N[C@@H](Cc1ccc(OP(=O)(O)O)cc1)C(=O)O

T1: STAT1 (Homo sapiens, UniProt P42224)
T1 sequence (P42224 1-750): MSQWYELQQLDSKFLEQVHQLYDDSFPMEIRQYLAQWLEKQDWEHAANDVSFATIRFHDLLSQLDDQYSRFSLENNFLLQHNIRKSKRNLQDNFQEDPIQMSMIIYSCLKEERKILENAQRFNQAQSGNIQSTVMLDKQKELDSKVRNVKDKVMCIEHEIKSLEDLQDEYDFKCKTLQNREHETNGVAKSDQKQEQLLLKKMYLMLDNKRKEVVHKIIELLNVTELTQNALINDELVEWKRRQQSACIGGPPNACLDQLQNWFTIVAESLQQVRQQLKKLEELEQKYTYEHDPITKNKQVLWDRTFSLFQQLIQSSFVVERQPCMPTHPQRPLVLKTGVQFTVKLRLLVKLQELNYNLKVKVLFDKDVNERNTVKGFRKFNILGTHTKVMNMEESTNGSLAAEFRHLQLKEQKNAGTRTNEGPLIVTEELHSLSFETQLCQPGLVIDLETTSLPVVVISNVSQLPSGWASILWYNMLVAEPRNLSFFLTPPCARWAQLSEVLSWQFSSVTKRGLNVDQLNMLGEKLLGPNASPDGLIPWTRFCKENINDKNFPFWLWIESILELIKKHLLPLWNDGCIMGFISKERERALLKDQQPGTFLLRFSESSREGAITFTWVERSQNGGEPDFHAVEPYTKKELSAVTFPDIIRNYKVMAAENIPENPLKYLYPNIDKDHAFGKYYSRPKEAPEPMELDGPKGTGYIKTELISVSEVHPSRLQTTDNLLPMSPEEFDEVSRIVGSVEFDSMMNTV


Tests used:
STAT3 = target: T2, STAT3 (Homo sapiens, UniProt P40763); assay: AlphaScreen-based competitive binding assay, STAT3 SH2 domain vs FITC-GpYLPQTV; conditions: for IC50: STAT3 wild-type (WT), read-out: STAT3 inhibition: IC50
T2 construct: a truncated form of STAT3 (136-705) was constructed and chromatographically purified; made in house
Excerpt: (§1) AlphaScreen is an in vitro competitive binding test used to identify compounds that are able to inhibit the binding of proteins containing an SH2 domain to their corresponding phosphopeptides (5-carboxyfluorescein (FITC)-GpYLPQTV for STAT3 and FITC-GpYDKPHVL for STAT1) (Table 2).
(§2) AlphaScreen is a bead-based non-radioactive assay system for the detection of biomolecular interactions in a microtiter plate format. The binding of biological partners brings donor and acceptor beads into close proximity and, as a result, a fluorescent signal between 520 and 620 nm was produced. The AlphaScreen-based assays were performed in a final reaction volume of 25 μL of the assay buffer containing 10 mM HEPES–NaOH (pH 7.4), 50 mM NaCl, 1 mM EDTA (pH 8.0), 0.1% NP-40, and 10 ng/μL bovine serum albumin (BSA) in a 96-well microtiter plate at 25 °C. The pTyr peptide probes used in this study were 5-carboxyfluorescein (FITC)-GpYLPQTV for STAT3 and (FITC)-GpYDKPHVL for STAT1. Plasmid construction and protein expression were performed as previously described; the experimental method is briefly summarized as follows. Considering that the expression of the full-length protein is troublesome, a truncated form of STAT3 (136-705) was constructed and chromatographically purified (AKTA FPLC system; GE Healthcare Bio-Sciences, Piscataway, NJ, USA). The soluble STAT3 fraction was loaded on a HisTrap™ column (GE Healthcare Bio-Sciences) and eluted with an imidazole gradient (50 mM Tris–HCl pH 7.4, 300 mM NaCl, 0.2 mM EDTA, 0.1% (w/v) NP-40, 5 mM β-mercaptoethanol, 10% (v/v) glycerol, and 10–300 mM imidazole). An SDS-PAGE stained with Coomassie Brilliant Blue (CBB) was performed to check the purity of the protein (see Figure S71). Subsequently, the protein was dialyzed (10 mM HEPES-NaOH pH 7.4, 50 mM NaCl, 10 mM β-mercaptoethanol, 0.1 mM EGTA, 0.02% (w/v) NP-40, 0.2 mM phenylmethylsulphonyl fluoride (PMSF), and 10% (v/v) glycerol).
Firstly, 75 nM of each SH2-containing protein were incubated with the test compound (at the following concentrations: 1, 3, 10, and 30 µM) for 15 min. Each protein sample was then incubated for 90 min with 50 nM of its corresponding FITC-pTyr peptide and simultaneously mixed with streptavidin-coated donor beads and anti-FITC acceptor beads before detection at 570 nm using EnVison Xcite (PerkinElmer, Waltham, MA, USA).

STAT1 = target: T1, STAT1; assay: AlphaScreen-based competitive binding assay, STAT1 vs FITC-GpYDKPHVL; conditions: read-out: STAT1 inhibition: IC50
Excerpt: as §1
as §2, with “The soluble STAT3 fraction was loaded on a HisTrap™ column (GE Healthcare Bio-Sciences) and eluted with an imidazole gradient (50 mM Tris–HCl pH 7.4, 300 mM NaCl, 0.2 mM EDTA, 0.1% (w/v) NP-40, 5 mM β-mercaptoethanol, 10% (v/v) glycerol, and 10–300 mM imidazole). An SDS-PAGE stained with Coomassie Brilliant Blue (CBB) was performed to check the purity of the protein (see Figure S71). Subsequently, the protein was dialyzed (10 mM HEPES-NaOH pH 7.4, 50 mM NaCl, 10 mM β-mercaptoethanol, 0.1 mM EGTA, 0.02% (w/v) NP-40, 0.2 mM phenylmethylsulphonyl fluoride (PMSF), and 10% (v/v) glycerol).” left out

[1] = target: T3, truncated form of STAT3 (136-705) (UniProt P40763 136-705); assay: AlphaScreen or HTRF; same procedure with STAT3 single-cysteine mutants; compound 1 (0.3-30 µM) premixed with L-Cys in PBS and AlphaScreen buffer, mixed with the STAT3 mutant solution before adding the FITC-peptide; conditions: both partners purified
T3 construct: STAT3, residues 136-705; also called STAT3 wild-type; source: plasmid construction and protein expression as previously described [52]; chromatographically purified (HisTrap column, imidazole gradient), dialyzed

[2] = 30 µM, n.a.: not active, read-out: STAT3 % Inhibition (30 µM)
[3] = Table 1, AlphaScreen-based assay at 30 µM, STAT3-SH2 domain, read-out: % Inhibition

T2 sequence (P40763 136-705): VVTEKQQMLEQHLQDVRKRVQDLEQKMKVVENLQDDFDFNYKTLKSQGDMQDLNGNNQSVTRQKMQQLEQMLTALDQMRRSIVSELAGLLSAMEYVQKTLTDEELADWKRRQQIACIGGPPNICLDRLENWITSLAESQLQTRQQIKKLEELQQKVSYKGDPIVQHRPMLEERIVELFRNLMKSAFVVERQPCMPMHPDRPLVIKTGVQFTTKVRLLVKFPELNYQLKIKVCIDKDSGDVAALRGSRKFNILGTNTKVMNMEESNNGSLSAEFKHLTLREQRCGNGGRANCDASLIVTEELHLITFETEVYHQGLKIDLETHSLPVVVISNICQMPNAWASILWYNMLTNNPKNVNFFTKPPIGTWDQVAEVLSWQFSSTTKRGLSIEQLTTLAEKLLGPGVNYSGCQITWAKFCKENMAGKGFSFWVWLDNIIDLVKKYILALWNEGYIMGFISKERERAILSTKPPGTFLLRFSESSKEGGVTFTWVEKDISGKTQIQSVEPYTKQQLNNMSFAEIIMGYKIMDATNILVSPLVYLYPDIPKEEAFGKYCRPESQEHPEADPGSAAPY
T3 sequence (P40763 136-705): as above

Molecule	inhibition at 30 µM (STAT3; [2])	IC50 (STAT3)	melting point	further results
O=S1(=O)N(Cc2ccccc2)c2ccccc2N1Cc1ccccc1 [Compound 3, 1,3-Dibenzyl-2,1,3-benzothiadiazole-2,2-dioxide]	–	–	134 °C	–
O=C(CN1c2ccccc2NS1(=O)=O)NCCc1ccccc1 [Compound 4, 2-(2,2-Dioxo-3H-2,1,3-benzothiadiazol-1-yl)-N-(2-phenylethyl)acetamide]	17.3 ± 1.3%	> 30 µM	172 °C	–
Oc1nc2ccccc2[nH]1 [Compound 5, 2,3-Dihydro-1H-1,3-benzodiazol-2-one]	3.5 ± 5.6%	> 30 µM	–	–
O=S1(=O)Cc2ccccc2C1 [Compound 6]	11.5 ± 0.8%	> 30 µM	–	–
NC1=NS(=O)(=O)Nc2nonc21 [III]	–	–	–	inhibition at 30 µM (STAT3; [3]): 85.4%
CCN1C(Cl)=NS(=O)(=O)c2ccccc21 [II]	–	–	–	inhibition at 30 µM (STAT3; [3]): 43.4%
CN1C(Cl)=NS(=O)(=O)c2ccccc21 [I]	–	–	–	inhibition at 30 µM (STAT3; [3]): 79%
G[pY]LPQTV (not fully specified (N-terminus), also called pTyr peptide probe for STAT3; phosphotyrosine peptide) [5-carboxyfluorescein (FITC)-GpYLPQTV]	–	–	–	binding result [1]: binds

Now from value to molecule, other results behind:

inhibition at 30 µM (STAT3; [2])	IC50 (STAT3)	melting point	Molecule	further results
16.4 ± 0.8%	> 30 µM	–	O=S1(=O)Nc2ccccc2N1 [Compound 1a, 1H,3H-2,1,3-Benzothiadiazole-2,2-dioxide]	–
14.5 ± 0.6%	> 30 µM	157 °C	Cc1ccc2c(c1)NS(=O)(=O)N2 [Compound 1b, 5-Methyl-1H,3H-2,1,3-benzothiadiazole-2,2-dioxide]	–
8.2 ± 1.6%	> 30 µM	143 °C	O=S1(=O)Nc2ccc(C(F)(F)F)cc2N1 [Compound 1c, 5-(Trifluoromethyl)-1H,3H-2,1,3-benzothiadiazole-2,2-dioxide]	–
56.9 ± 3.6%	25.1 µM	–	O=[N+]([O-])c1ccc2c(c1)NS(=O)(=O)N2 [Compound 1d, 5-Nitro-1H,3H-2,1,3-benzothiadiazole-2,2-dioxide]	IC50 (STAT1): 15.9 µM
28.2 ± 1.4%	> 30 µM	–	O=S1(=O)Nc2ccc(Cl)cc2N1 [Compound 1e, 5-Chloro-1H,3H-2,1,3-benzothiadiazole-2,2-dioxide]	–
18.9 ± 2.3%	> 30 µM	–	CC(=O)Nc1ccc2c(c1)NS(=O)(=O)N2 [Compound 1f, N-(2,2-Dioxo-1H,3H-2,1,3-benzothiadiazol-5-yl)acetamide]	–
11 ± 2.1%	> 30 µM	–	CC(C)CCNC(=O)CCc1ccc2c(c1)NS(=O)(=O)N2 [Compound 1g, 3-(2,2-Dioxo-1H,3H-2,1,3-benzothiadiazol-5-yl)-N-(3-methylbutyl)propanamide]	–
–	–	192 to 197 °C	O=C(CCc1ccc2c(c1)NS(=O)(=O)N2)Nc1ccccc1 [Compound 1h, 3-(2,2-Dioxo-1H,3H-2,1,3-benzothiadiazol-5-yl)-N-phenylpropanamide]	–
6.1 ± 0.9%	> 30 µM	180 to 185 °C	O=S1(=O)Nc2ccc(-c3ccccc3)cc2N1 [Compound 1i, 5-Phenyl-1H,3H-2,1,3-benzothiadiazole-2,2-dioxide]	–
25.6 ± 1.2%	> 30 µM	185 °C	Cc1cc2c(cc1Br)NS(=O)(=O)N2 [Compound 2a, 5-Bromo-6-methyl-1H,3H-2,1,3-benzothiadiazole-2,2-dioxide]	–
8.9 ± 1.1%	> 30 µM	–	Cc1ccc2c(c1)N(C)S(=O)(=O)N2C [Compound 2b, 1,3,5-Trimethyl-2,1,3-benzothiadiazole-2,2-dioxide]	–
